Reference: PubChem BioAssay AID220 (DTP/NCI, 2004)
Values joined by “and” are separate entries in the source; they are usually repeats but may differ in a detail not shown here. Equal values may be shown once. Records with an inconclusive call do not appear.

Tested on: CD8F1 mice, subcutaneous mammary adenocarcinoma, T/C%
Assay: NCI In Vivo Anticancer Drug Screen. Data for tumor model Mammary Adenocarcinoma CD8F1 (subcutaneous) in CD8F1
Conditions: higher = larger tumour
Summary of the method: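 Compound-treated versus vehicle-treated mice with transplantable tumors; survival or tumor size compared as T/C.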

[1] = endpoint: median tumor weight (est.), dose: 12.5 mg/kg/injection, schedule: Q07DX005 (ip), vehicle: Klucel (hydroxypropylcellulose) (HPC)
[2] = endpoint: median tumor weight (est.), dose: 25.0 mg/kg/injection, schedule: Q07DX005 (ip), vehicle: Klucel (hydroxypropylcellulose) (HPC)
[3] = endpoint: median tumor weight (est.), dose: 50.0 mg/kg/injection, schedule: Q07DX005 (ip), vehicle: Klucel (hydroxypropylcellulose) (HPC)

C1OC1CO[C@@H]1CO[C@H]2[C@@H]1OC[C@H]2OCC1CO1 (stereo partly drawn) was tested, and the T/C [1] was 44 % of control, the T/C [2] was 53 % of control and the T/C (endpoint: median tumor weight (est.), dose: 25.0 mg/kg/injection, schedule: Q07DX005 (ip), vehicle: suspension in saline) was 108 % of control. For the same compound, the T/C [3] was 84 % of control, the T/C (endpoint: median tumor weight (est.), dose: 50.0 mg/kg/injection, schedule: Q07DX005 (ip), vehicle: suspension in saline) was 64 % of control and the T/C (endpoint: median tumor weight (est.), dose: 100.0 mg/kg/injection, schedule: Q07DX005 (ip), vehicle: Klucel (hydroxypropylcellulose) (HPC)) was 108 % of control. For the same compound, the T/C (endpoint: median tumor weight (est.), dose: 100.0 mg/kg/injection, schedule: Q07DX005 (ip), vehicle: suspension in saline) was 48 % of control, the T/C (endpoint: median tumor weight (est.), dose: 200.0 mg/kg/injection, schedule: Q07DX005 (ip), vehicle: Klucel (hydroxypropylcellulose) (HPC)) was 57 % of control and the T/C (endpoint: median tumor weight (est.), dose: 200.0 mg/kg/injection, schedule: Q07DX005 (ip), vehicle: suspension in saline) was 51 % of control. The T/C (endpoint: median tumor weight (est.), dose: 400.0 mg/kg/injection, schedule: Q07DX005 (ip), vehicle: Klucel (hydroxypropylcellulose) (HPC)) was 16 % of control and the T/C (endpoint: median tumor weight (est.), dose: 400.0 mg/kg/injection, schedule: Q07DX005 (ip), vehicle: suspension in saline) was 9 % of control.
In the case of Cc1c2cc[n+](C)cc2c(C)c2c1[nH]c1ccc(O)cc12, the T/C (endpoint: median tumor weight change, dose: 0.62 mg/kg/injection, schedule: Q01DX001 (ip), vehicle: saline) was 101 % of control, the T/C (endpoint: median tumor weight change, dose: 1.25 mg/kg/injection, schedule: Q01DX001 (ip), vehicle: saline) was 67 % of control and the T/C (endpoint: median tumor weight change, dose: 2.5 mg/kg/injection, schedule: Q01DX001 (ip), vehicle: saline) was 60 % of control.
For COC1/C=C\C=C(/C)C(=O)NC2=CC(=O)C=C(C2=O)C(OC)C(C)CC(OC)C(OC)C(C)/C=C(/C)C1OC(N)=O (stereo not drawn), the T/C (endpoint: median tumor weight change, dose: 1.88 mg/kg/injection, schedule: Q01DX001 (ip), vehicle: Klucel (hydroxypropylcellulose) (HPC)) was 103 % of control and the T/C (endpoint: median tumor weight change, dose: 3.75 mg/kg/injection, schedule: Q01DX001 (ip), vehicle: Klucel (hydroxypropylcellulose) (HPC)) was 46 % of control.
With NC(CCl)=NCC12CC3CC(CC(C3)C1)C2 the T/C (endpoint: median tumor weight (est.), dose: 3.12 mg/kg/injection, schedule: Q07DX005 (ip), vehicle: Klucel (hydroxypropylcellulose) (HPC)) was 114 % of control, the T/C [1] was 104 % of control and 119 % of control and the T/C [2] was 90 % of control. For the same compound, the T/C [3] was 39 % of control and 51 % of control.
With C=C(NC(=O)C(=C)NC(=O)c1csc(C2=NC3c4csc(n4)C4NC(=O)c5csc(n5)C(C(C)(O)C(C)O)NC(=O)C5CSC(=N5)/C(=C/C)NC(=O)C(C(C)O)NC(=O)c5csc(n5)C3(CC2)NC(=O)C(C)NC(=O)C(=C)NC(=O)C(=C)NC(=O)C(C(C)C)NC2C=Cc3c(C(C)O)cc(nc3C2O)C(=O)OC4C)n1)C(N)=O (stereo not drawn) the T/C (endpoint: median tumor weight change, dose: 125.0 mg/kg/injection, schedule: Q01DX001 (ip), vehicle: saline) was 156 % of control, the T/C (endpoint: median tumor weight change, dose: 250.0 mg/kg/injection, schedule: Q01DX001 (ip), vehicle: saline) was 106 % of control and the T/C (endpoint: median tumor weight change, dose: 500.0 mg/kg/injection, schedule: Q01DX001 (ip), vehicle: saline) was 110 % of control. The T/C (endpoint: median tumor weight change, dose: 1000.0 mg/kg/injection, schedule: Q01DX001 (ip), vehicle: saline) was 86 % of control.
In the case of CCC1=C[C@H]2CN(CCc3c([nH]c4ccccc34)[C@@](C(=O)OC)(c3cc4c(cc3OC)N(C)[C@H]3[C@@](O)(C(=O)NC)[C@H](OC(C)=O)[C@]5(CC)C=CCN6CC[C@]43[C@@H]65)C2)C1, the T/C (endpoint: median tumor weight (est.), dose: 0.03 mg/kg/injection, schedule: Q07DX005 (ip), vehicle: water) was 93 % of control, the T/C (endpoint: median tumor weight (est.), dose: 0.06 mg/kg/injection, schedule: Q07DX005 (ip), vehicle: water) was 98 % of control and the T/C (endpoint: median tumor weight (est.), dose: 0.12 mg/kg/injection, schedule: Q07DX005 (ip), vehicle: water) was 91 % of control. For the same compound, the T/C (endpoint: median tumor weight (est.), dose: 0.5 mg/kg/injection, schedule: Q07DX005 (ip), vehicle: saline) was 86 % of control, the T/C (endpoint: median tumor weight (est.), dose: 0.5 mg/kg/injection, schedule: Q07DX005 (ip), vehicle: water) was 73 % of control and the T/C (endpoint: median tumor weight (est.), dose: 1.0 mg/kg/injection, schedule: Q07DX005 (ip), vehicle: saline) was 46 % of control. The T/C (endpoint: median tumor weight (est.), dose: 1.0 mg/kg/injection, schedule: Q07DX005 (ip), vehicle: water) was 57 % of control and the T/C (endpoint: median tumor weight (est.), dose: 2.0 mg/kg/injection, schedule: Q07DX005 (ip), vehicle: water) was 3 % of control.
In the case of C=CS(=O)(=O)c1ccccc1, the T/C (endpoint: mean tumor weight, dose: 25.0 mg/kg/injection, schedule: Q07DX005 (ip), vehicle: saline with Tween-80) was 110 % of control, the T/C (endpoint: mean tumor weight, dose: 50.0 mg/kg/injection, schedule: Q07DX005 (ip), vehicle: saline with Tween-80) was 117 % of control and the T/C (endpoint: mean tumor weight, dose: 100.0 mg/kg/injection, schedule: Q07DX005 (ip), vehicle: saline with Tween-80) was 114 % of control. For the same compound, the T/C (endpoint: mean tumor weight, dose: 200.0 mg/kg/injection, schedule: Q07DX005 (ip), vehicle: saline with Tween-80) was 154 % of control.
C/C(=N\NC(=S)N1CCN(c2ccccn2)CC1)c1ccccn1 was tested, and the T/C (endpoint: median tumor weight change, dose: 12.5 mg/kg/injection, schedule: Q01DX001 (ip), vehicle: other) was 74 % of control, the T/C (endpoint: median tumor weight change, dose: 25.0 mg/kg/injection, schedule: Q01DX001 (ip), vehicle: other) was 76 % of control and the T/C (endpoint: median tumor weight change, dose: 50.0 mg/kg/injection, schedule: Q01DX001 (ip), vehicle: other) was 87 % of control.
COc1cc2cc[n+](C)c(Cc3ccccc3)c2cc1OC was tested, and the T/C (endpoint: median tumor weight (est.), dose: 6.25 mg/kg/injection, schedule: Q07DX005 (ip), vehicle: saline with Tween-80) was 123 % of control, the T/C (endpoint: median tumor weight (est.), dose: 12.5 mg/kg/injection, schedule: Q07DX005 (ip), vehicle: saline with Tween-80) was 83 % of control and the T/C (endpoint: median tumor weight (est.), dose: 25.0 mg/kg/injection, schedule: Q07DX005 (ip), vehicle: saline with Tween-80) was 94 % of control. For the same compound, the T/C (endpoint: median tumor weight (est.), dose: 50.0 mg/kg/injection, schedule: Q07DX005 (ip), vehicle: saline with Tween-80) was 75 % of control.
